Experimental findings from patent US20110212972A1, “Compositions and Methods for Treating Female Sexual Dysfunction” (Pfizer Inc, priority 2000, published 2011) are described below.

One test concerns MCF-7 cells. As to the kind of experiment: Inhibition of in vitro human breast tumor cell growth, ER-positive MCF-7. The class given is cell-based. Particulars: MCF-7 (ER-positive), 6 days incubation, direct cell counts. The method, then: (§1) The in vitro antiproliferative effects of (−)-cis-6-phenyl-5-[4-(2-pyrrolidin-1-yl-ethoxy)-phenyl]-5,6,7,8-tetrahydro-naphthalene-2-ol (PPTN) were tested using two types of human breast cancer cell lines: first, MCF-7 cells, which contain ER as well as progesterone receptors (PgR), and second, MDA-MB-231 cells, which lack ER and PgR, and enable the determination of an effect that is independent of the ER mechanism. The effect of PPTN on the growth of these different cell lines was determined by incubation of the cells with various compound concentrations for 6 days.
(§2) The antiproliferative effects were then determined by direct cell counts.

Another test concerns MDA-MB-231 cells. As to the kind of experiment: Inhibition of in vitro human breast tumor cell growth, ER-negative MDA-MB-231. The class given is cell-based. Conditions: MDA-MB-231 (ER-negative), 6 days incubation, direct cell counts. The method, then:
as §1, §2

On to `Oc1ccc2c(c1)CC[C@H](c1ccccc1)[C@@H]2c1ccc(OCCN2CCCC2)cc1` [PPTN, (−)-cis-6-phenyl-5-[4-(2-pyrrolidin-1-yl-ethoxy)-phenyl]-5,6,7,8-tetrahydro-naphthalene-2-ol], for which, in the test on MCF-7 cells, the “IC50 for growth inhibition” value is on record as 3 to 5×10^−11 M and the “effect on cell growth” value is on record as “inhibited the growth”. In addition, the “effect on cell proliferation” value in the test on MDA-MB-231 cells was “did not inhibit cell proliferation”.
